Results from ChEMBL document CHEMBL1201862, “PubChem BioAssay data set” (2004).
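Where inhibition never reached the appropriate level, the endpoint shown equals the highest concentration tested. Otherwise, values were interpolated linearly from a five-concentration, 48-hour dose response in 96-well plates. At the GI50, growth is halved.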 Activity calls are given as the source filed them. Rule as the data show it: active = GI50 up to about 1.1 µM and inactive = higher.

What was measured:
Assay in all cases: NCI-60 cell line screen, 48 h
UO-31 = test system: UO-31
SF-295 = test system: SF-295
SW-620 = test system: SW-620
786-0 = test system: 786-0
SNB-19 = test system: SNB-19
NCI-H226 = test system: NCI-H226
Hs-578T = test system: Hs-578T
NCI-H23 = test system: NCI-H23
HOP-62 = test system: HOP-62
HCT-15 = test system: HCT-15
U-251 = test system: U-251
TK-10 = test system: TK-10
PC-3 = test system: PC-3
COLO 205 = test system: COLO 205
A498 = test system: A498
EKVX = test system: EKVX
OVCAR-3 = test system: OVCAR-3
LOX IMVI = test system: LOX IMVI
A549 = test system: A549
CCRF-CEM = test system: CCRF-CEM
OVCAR-8 = test system: OVCAR-8
RPMI-8226 = test system: RPMI-8226
OVCAR-5 = test system: OVCAR-5
NCI-H460 = test system: NCI-H460
OVCAR-4 = test system: OVCAR-4
MDA-MB-231 = test system: MDA-MB-231
HT-29 = test system: HT-29
IGROV-1 = test system: IGROV-1
HL-60 = test system: HL-60
MOLT-4 = test system: MOLT-4
SN12C = test system: SN12C
HCT-116 = test system: HCT-116
SF-539 = test system: SF-539
MDA-MB-435 = test system: MDA-MB-435
HCC 2998 = test system: HCC 2998
UACC-62 = test system: UACC-62
NCI/ADR-RES = test system: NCI/ADR-RES
RXF 393 = test system: RXF 393
T47D = test system: T47D
HOP-92 = test system: HOP-92
ACHN = test system: ACHN
SK-MEL-28 = test system: SK-MEL-28
M14 = test system: M14
Malme-3M = test system: Malme-3M
SK-MEL-5 = test system: SK-MEL-5
DU-145 = test system: DU-145
MCF7 = test system: MCF7
NCI-H522 = test system: NCI-H522
UACC-257 = test system: UACC-257
SK-MEL-2 = test system: SK-MEL-2
SF-268 = test system: SF-268
SNB-75 = test system: SNB-75
K562 = test system: K562
SR = test system: SR
KM12 = test system: KM12
CAKI-1 = test system: CAKI-1
SK-OV-3 = test system: SK-OV-3

`CCCCCN(CCCCC)CC(C)(C)C(O)c1ccc(OC)c2ccccc12` (centres undefined) was tested, and the GI50 (UO-31) was 2.25 µM (inactive), the GI50 (SF-295) was 9.77 µM (inactive) and the GI50 (SW-620) was 10 µM (inactive). The GI50 (786-0) was 12.4 µM (inactive), the GI50 (SNB-19) was 10.7 µM (inactive) and the GI50 (NCI-H226) was 16.9 µM (inactive). For the same compound, the GI50 (Hs-578T) was 16.6 µM (inactive), the GI50 (NCI-H23) was 11.2 µM (inactive) and the GI50 (HOP-62) was 22.9 µM (inactive). The GI50 (HCT-15) was 5.81 µM, the GI50 (U-251) was 9.46 µM (inactive) and the GI50 (TK-10) was 7.98 µM (inactive). The GI50 (PC-3) was 10.9 µM (inactive), the GI50 (COLO 205) was 6.85 µM (inactive) and the GI50 (A498) was 14.3 µM (inactive). For the same compound, the GI50 (EKVX) was 12.1 µM (inactive), the GI50 (OVCAR-3) was 8.34 µM (inactive) and the GI50 (LOX IMVI) was 1.68 µM (inactive). For the same compound, the GI50 (A549) was 9.2 µM (inactive), the GI50 (CCRF-CEM) was 27.9 µM (inactive) and the GI50 (OVCAR-8) was 10.5 µM (inactive). For the same compound, the GI50 (RPMI-8226) was 4.15 µM (inactive), the GI50 (OVCAR-5) was 11.9 µM (inactive) and the GI50 (NCI-H460) was 3.4 µM (inactive). For the same compound, the GI50 (OVCAR-4) was 11.1 µM (inactive), the GI50 (MDA-MB-231) was 13.8 µM (inactive) and the GI50 (HT-29) was 2.01 µM (inactive). The GI50 (IGROV-1) was 2.59 µM (inactive), the GI50 (HL-60) was 3.77 µM (inactive) and the GI50 (MOLT-4) was 3.25 µM (inactive). For the same compound, the GI50 (SN12C) was 11.5 µM (inactive), the GI50 (HCT-116) was 12.9 µM (inactive) and the GI50 (SF-539) was 3.89 µM (inactive). The GI50 (MDA-MB-435) was 10.8 µM (inactive), the GI50 (HCC 2998) was 3.52 µM (inactive) and the GI50 (UACC-62) was 12.5 µM (inactive). For the same compound, the GI50 (NCI/ADR-RES) was 7.05 µM (inactive), the GI50 (RXF 393) was 7.78 µM (inactive) and the GI50 (T47D) was 4.56 µM (inactive). The GI50 (HOP-92) was 2.53 µM (inactive), the GI50 (ACHN) was 11.7 µM (inactive) and the GI50 (SK-MEL-28) was 10.5 µM (inactive). The GI50 (M14) was 1.4 µM (inactive), the GI50 (Malme-3M) was 14.1 µM (inactive) and the GI50 (SK-MEL-5) was 3.52 µM (inactive). For the same compound, the GI50 (DU-145) was 12.5 µM (inactive), the GI50 (MCF7) was 5.13 µM (inactive) and the GI50 (NCI-H522) was 6.79 µM (inactive). The GI50 (UACC-257) was 13.1 µM (inactive), the GI50 (SK-MEL-2) was 18.2 µM (inactive) and the GI50 (SF-268) was 13.3 µM (inactive). The GI50 (SNB-75) was 20.5 µM (inactive), the GI50 (K562) was 3.01 µM (inactive) and the GI50 (SR) was 2.07 µM (inactive). The GI50 (KM12) was 8.81 µM (inactive) and the GI50 (CAKI-1) was 11.6 µM (inactive).

With `COC(C)(C)[C@@H](O)[C@H](O)C[C@H](C)C1=C2CC[C@@H]3[C@@]4(C)CC[C@@H](OC(C)=O)C(C)(C)[C@@H]4C[C@@H](OC4OC(COC(C)=O)C(O)C(O)C4O)[C@@]3(C)[C@]2(C)CC1` (some centres undefined) the GI50 (U-251) was 10.7 µM (inactive), the GI50 (SK-OV-3) was 15.3 µM (inactive) and the GI50 (SNB-75) was 8.79 µM (inactive).
